Measured values published in patent publication US4157347A, “N-cyano isothioureas” (Bristol-Myers Company, priority 1978, dated 1979).
Entries after “also recorded” stand apart in the source; their conditions may differ.

Assays:
[1] = test system: histamine-induced gastric acid output; assay: Gastric antisecretory activity in the gastric fistula dog (histamine-induced gastric acid output); type: in vivo, dog (beagle)
Method: Determination of Gastric Antisecretory Activity in the Gastric Fistula Dog
Thomas type [Thomas, J. E., Proc. Soc. exp. Biol. Med., 46, 260 (1941)] stainless steel cannulae are inserted into the stomachs of beagle dogs (10-12 kg.) just orad to the pyloric gland area near the greater curvature to provide a chronic gastric fistula. Animals are allowed to recover for at least two months before any testing is done. Dogs are fasted overnight (~18 hours) with water ad lib prior to each experiment. The dogs are placed in a sling and an eight inch inside needle catheter (C. R. Baird, Inc.) with a two inch 17 gauge needle is inserted into a leg vein for purposes of drug administration. Gastric secretions are collected every 15 minutes by gravity drainage from the opened cannula. […] A modification of the procedure described by Grossman and Konturek, Gastroenterology, 66, 517 (1974) was followed. […] Each 15 minute sample of gastric juice is measured to the nearest 0.5 ml. and titratable acidity against 0.02 N NaOH (endpoint pH 7.0) is measured with an Autoburet and pH meter (radiometer). The percent inhibition of acid output is calculated as described in the pylorus ligated rat procedure.

[2] = molecular target: T1, histamine H2-receptors (Cavia porcellus, UniProt P47747); assay: Histamine H2-receptor antagonism, isolated guinea pig right atria assay; type: cell-based
T1 construct: The spontaneously beating right atrium was dissected free from other tissues; from tissue; host or cells: isolated spontaneously beating right atrium of male Hartley guinea pigs
T1 sequence (P47747 whole entry): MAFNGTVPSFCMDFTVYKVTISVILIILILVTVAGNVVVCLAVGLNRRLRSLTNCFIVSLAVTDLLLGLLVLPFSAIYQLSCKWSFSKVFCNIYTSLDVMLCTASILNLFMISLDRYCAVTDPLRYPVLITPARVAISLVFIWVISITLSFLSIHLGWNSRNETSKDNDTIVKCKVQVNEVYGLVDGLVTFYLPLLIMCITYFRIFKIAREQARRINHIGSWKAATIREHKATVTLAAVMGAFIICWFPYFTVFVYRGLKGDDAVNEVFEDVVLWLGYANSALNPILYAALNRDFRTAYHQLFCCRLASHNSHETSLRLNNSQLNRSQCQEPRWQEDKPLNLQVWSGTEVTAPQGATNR
Method: Subsequent investigations by Hughes and Coret, Proc. Soc. […] Black et al., Agents and Actions, 3, 133 (1973) and Brimblecombe et al., Fed. […] The present comparative studies were carried out using a modification of the procedure reported by Reinhardt et al., Agents and Actions, 4, 217 (1974).
Male Hartley strain guinea pigs (350-450 gm.) were sacrificed by a blow on the head. The heart was excised and placed in a Petri dish of oxygenated (95% O2, 5% CO2) modified Krebs solution (g./liter: NaCl 6.6, KCl 0.35, MgSO4.7 H2 O 0.295, KH2 PO4 0.162, CaCl2 0.238, NaHCO3 2.1 and dextrose 2.09). The spontaneously beating right atrium was dissected free from other tissues and a silk thread (4-0) attached to each end. The atrium was suspended in a 20 ml. muscle chamber containing oxygenated modified Krebs solution maintained at 32° C. Atrial contractions were recorded isometrically by means of a Grass FT 0.03 force displacement transducer and recordings of contractile force and rate were made with a Beckman RP Dynograph.
A resting tension of 1 g. was applied to the atrium and it was allowed to equilibrate for 1 hour.
Concentration-response curve displacement factors were calculated as follows: [formula] The factor obtained for BL-5641 was then expressed as a ratio of the factor obtained for cimetidine. [formula]

[3] = test system: gastric acid output; assay: Gastric antisecretory activity in the two hour pylorus ligated (Shay) rat; type: in vivo, rat (male Long Evans)
From the text: Determination of Gastric Antisecretory Activity in the Two Hour Pylorus Ligated (Shay) Rat
The pyloric ligation procedure in the rat was designed by Shay et al., Gastroenterology, 5,53 (1945) for the study of perforating gastric ulcers; however, as the method became known, it was also employed as a means of studying rat gastric secretion, Shay et al., Gastroenterology, 26, 906 (1954), Brodie, D. A., Am. J. Dig. Dis., 11, 231 (1966). A modification of this procedure is presently used to evaluate compounds for gastric antisecretory activity.
Male Long Evans rats, 280-300 gm., are used. The animals are placed in individual cages and fasted for 24 hours with free access to water. Under ether anesthesia, the stomach is reached through a midline incision, and a cotton-thread ligature is placed around the pylorus. After wound closure, ether administration is stopped and either BL-5641, cimetidine or vehicle are administered intraperitoneally in a volume of […]. BL-5641 and cimetidine are solubilized with one equivalent of HCl and brought to the proper volume with water. The animals are returned to their cages from which the water bottles have been removed and two hours later are sacrificed with ether. The stomach is removed and the two hour gastric collection is drained into a graduated test tube for volume determination. Titratable acidity is measured by titrating a one ml. sample to pH 7.0 with 0.02 N NaOH, using an Autoburet and an electrometric pH meter (Radiometer). Titratable acid output is calculated in microequivalents by multiplying the volume in milliliters by the acid concentration in milliequivalents per liter. The percent inhibition of acid output is calculated as follows [formula]

SMILES: C#CCN=C(NC#N)NCCSCc1[nH]cnc1C [BL-5641, N-Cyano-N'-{2-[(4-methyl-5-imidazolyl)methylthio]ethyl}-N"-propargylguanidine]
- % Inhibition Acid Output ([1]; 0.75 μM/kg. iv, 15 min, dog 23553, N=1): 51%
- % Inhibition Acid Output ([1]; 0.75 μM/kg. iv, 30 min, dog 23553, N=1): 38%
- % Inhibition Acid Output ([1]; 0.75 μM/kg. iv, 45 min, dog 23553, N=1): 28%
- % Inhibition Acid Output ([1]; 0.75 μM/kg. iv, 60 min, dog 23553, N=1): 28%
- % Inhibition Acid Output ([1]; 0.75 μM/kg. iv, 75 min, dog 23553, N=1): 31%
- % Inhibition Acid Output ([1]; 0.75 μM/kg. iv, 90 min, dog 23553, N=1): 43%
- % Inhibition Acid Output ([1]; 0.75 μM/kg. iv, 105 min, dog 23553, N=1): 42%
- % Inhibition Acid Output ([1]; 0.75 μM/kg. iv, 120 min, dog 23553, N=1): 46%
- % Inhibition Acid Output ([1]; 1.5 μM/kg. iv, 15 min, dog 24895, N=1): 82%
- % Inhibition Acid Output ([1]; 1.5 μM/kg. iv, 30 min, dog 24895, N=1): 72%
- % Inhibition Acid Output ([1]; 1.5 μM/kg. iv, 45 min, dog 24895, N=1): 53%
- % Inhibition Acid Output ([1]; 1.5 μM/kg. iv, 60 min, dog 24895, N=1): 49%
- % Inhibition Acid Output ([1]; 1.5 μM/kg. iv, 75 min, dog 24895, N=1): 33%
- % Inhibition Acid Output ([1]; 1.5 μM/kg. iv, 90 min, dog 24895, N=1): 7%
- % Inhibition Acid Output ([1]; 1.5 μM/kg. iv, 105 min, dog 24895, N=1): 0%
- % Inhibition Acid Output ([1]; 1.5 μM/kg. iv, 120 min, dog 24895, N=1): 0%
- % Inhibition Acid Output ([1]; 3 μM/kg. iv, 15 min, dog 23606, N=1): 60%
- % Inhibition Acid Output ([1]; 3 μM/kg. iv, 30 min, dog 23606, N=1): 59%
- % Inhibition Acid Output ([1]; 3 μM/kg. iv, 45 min, dog 23606, N=1): 36%
- % Inhibition Acid Output ([1]; 3 μM/kg. iv, 60 min, dog 23606, N=1): 34%
- % Inhibition Acid Output ([1]; 3 μM/kg. iv, 75 min, dog 23606, N=1): 32%
- % Inhibition Acid Output ([1]; 3 μM/kg. iv, 90 min, dog 23606, N=1): 42%
- % Inhibition Acid Output ([1]; 3 μM/kg. iv, 105 min, dog 23606, N=1): 24%
- % Inhibition Acid Output ([1]; 3 μM/kg. iv, 120 min, dog 23606, N=1): 0%
- % Inhibition Acid Output ([1]; 6 μM/kg. iv, 15 min, dog 22619, N=1): 82%
- % Inhibition Acid Output ([1]; 6 μM/kg. iv, 30 min, dog 22619, N=1): 99%
- % Inhibition Acid Output ([1]; 6 μM/kg. iv, 45 min, dog 22619, N=1): 99%
- % Inhibition Acid Output ([1]; 6 μM/kg. iv, 60 min, dog 22619, N=1): 95%
- % Inhibition Acid Output ([1]; 6 μM/kg. iv, 75 min, dog 22619, N=1): 78%
- % Inhibition Acid Output ([1]; 6 μM/kg. iv, 90 min, dog 22619, N=1): 76%
- % Inhibition Acid Output ([1]; 6 μM/kg. iv, 105 min, dog 22619, N=1): 52%
- % Inhibition Acid Output ([1]; 6 μM/kg. iv, 120 min, dog 22619, N=1): 53%
- % Inhibition Acid Output ([1]; 12 μM/kg. iv, 15 min, dog 24136, N=1): 66%
- % Inhibition Acid Output ([1]; 12 μM/kg. iv, 30 min, dog 24136, N=1): 99%
- % Inhibition Acid Output ([1]; 12 μM/kg. iv, 45 min, dog 24136, N=1): 99%
- % Inhibition Acid Output ([1]; 12 μM/kg. iv, 60 min, dog 24136, N=1): 99%
- % Inhibition Acid Output ([1]; 12 μM/kg. iv, 75 min, dog 24136, N=1): 99%
- % Inhibition Acid Output ([1]; 12 μM/kg. iv, 90 min, dog 24136, N=1): 93%
- % Inhibition Acid Output ([1]; 12 μM/kg. iv, 105 min, dog 24136, N=1): 91%
- % Inhibition Acid Output ([1]; 12 μM/kg. iv, 120 min, dog 24136, N=1): 73%
- duration of activity vs cimetidine ([1]; equal (equimolar) doses iv, in words): of longer duration with BL-5641 than with cimetidine; also recorded: longer duration of activity than cimetidine at equal doses
- degree of inhibition of gastric acid output vs cimetidine ([1]; equimolar doses iv, in words): consistently greater
- inhibitor of gastric acid output, potency vs cimetidine ([1]; iv, in words): more potent and/or longer acting than cimetidine; also recorded: more potent than cimetidine
- onset of effect on gastric acid output ([1]; iv, in words): immediate inhibitory effect on gastric acid output
- Histamine ED50 With 95% Confidence Limits ([2]; histamine ED50 in presence of test compound 1 × 10^-5 M, 30 min incubation): 12.44 mg/L
- histamine H2-receptor antagonist potency vs cimetidine ([2]; isolated guinea pig atria, in words): more potent than cimetidine
- Concentration-Response Curve Displacement Factor ([2]; test compound 1 × 10^-5 M): 32.7
- % Inhibition of Acid Output ([3]; 10 μMole/kg. ip, 2 h (BL-5641 2.76 mg/kg; cimetidine 2.5 mg/kg)): 37%
- % Inhibition of Acid Output ([3]; 20 μMole/kg. ip, 2 h (BL-5641 5.53 mg/kg; cimetidine 5 mg/kg)): 61%
- % Inhibition of Acid Output ([3]; 40 μMole/kg. ip, 2 h (BL-5641 11.1 mg/kg; cimetidine 10 mg/kg)): 80%
- ED50 ([3]; Rattus norvegicus, ip, 2 h, read-out: ED50 (inhibition of acid output)): ~11 µmol/kg
- potency in inhibition of gastric acid output vs cimetidine ([3]; in words): at least as potent as cimetidine; also recorded: more potent than cimetidine
